Assay results as given in PubChem BioAssay (NCI).
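Here, GI50 denotes the concentration required for 50% inhibition of growth. The concentration for full growth arrest is given as TGI.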

Experiments:
Assay in all cases: inhibition of tumour cell growth, NCI panel, 384-well format
786-0 renal = tested on: 786-0 renal
A498 renal = tested on: A498 renal
A549 NSCLC = tested on: A549 NSCLC
ACHN renal = tested on: ACHN renal
BT-549 breast = tested on: BT-549 breast
CAKI-1 renal = tested on: CAKI-1 renal
CCRF-CEM leukemia = tested on: CCRF-CEM leukemia
COLO 205 colon = tested on: COLO 205 colon
DU-145 prostate = tested on: DU-145 prostate
EKVX NSCLC = tested on: EKVX NSCLC
HCC-2998 colon = tested on: HCC-2998 colon
HCT-116 colon = tested on: HCT-116 colon
HCT-15 colon = tested on: HCT-15 colon
HL-60(TB) leukemia = tested on: HL-60(TB) leukemia
HOP-62 NSCLC = tested on: HOP-62 NSCLC
HOP-92 NSCLC = tested on: HOP-92 NSCLC
HT29 colon = tested on: HT29 colon
IGROV1 ovarian = tested on: IGROV1 ovarian
K-562 leukemia = tested on: K-562 leukemia
KM12 colon = tested on: KM12 colon
LOX IMVI melanoma = tested on: LOX IMVI melanoma
M14 melanoma = tested on: M14 melanoma
MALME-3M melanoma = tested on: MALME-3M melanoma
MCF7 breast = tested on: MCF7 breast
MDA-MB-231 breast = tested on: MDA-MB-231 breast
MDA-MB-435 melanoma = tested on: MDA-MB-435 melanoma
MDA-MB-468 breast = tested on: MDA-MB-468 breast
MOLT-4 leukemia = tested on: MOLT-4 leukemia
NCI-H226 lung = tested on: NCI-H226 lung
NCI-H23 lung = tested on: NCI-H23 lung
NCI-H322M lung = tested on: NCI-H322M lung
NCI-H460 NSCLC = tested on: NCI-H460 NSCLC
NCI-H522 lung = tested on: NCI-H522 lung
NCI/ADR-RES ovarian = tested on: NCI/ADR-RES ovarian
OVCAR-3 ovarian = tested on: OVCAR-3 ovarian
OVCAR-4 ovarian = tested on: OVCAR-4 ovarian
OVCAR-5 ovarian = tested on: OVCAR-5 ovarian
OVCAR-8 ovarian = tested on: OVCAR-8 ovarian
PC-3 prostate = tested on: PC-3 prostate
RPMI-8226 leukemia = tested on: RPMI-8226 leukemia
RXF 393 renal = tested on: RXF 393 renal
SF-268 CNS = tested on: SF-268 CNS
SF-295 CNS = tested on: SF-295 CNS
SF-539 CNS = tested on: SF-539 CNS
SK-MEL-2 melanoma = tested on: SK-MEL-2 melanoma
SK-MEL-28 melanoma = tested on: SK-MEL-28 melanoma
SK-MEL-5 melanoma = tested on: SK-MEL-5 melanoma
SK-OV-3 ovarian = tested on: SK-OV-3 ovarian
SN12C renal = tested on: SN12C renal
SNB-19 CNS = tested on: SNB-19 CNS
SNB-75 CNS = tested on: SNB-75 CNS
SR leukemia = tested on: SR leukemia
SW-620 colon = tested on: SW-620 colon
T-47D breast = tested on: T-47D breast
TK-10 renal = tested on: TK-10 renal
U251 glioblastoma = tested on: U251 glioblastoma
UACC-257 melanoma = tested on: UACC-257 melanoma
UACC-62 melanoma = tested on: UACC-62 melanoma
UO-31 renal = tested on: UO-31 renal

`CC#C/C(=N\OC[C@H]1COCCN1)c1ccc2ncnc(Nc3ccc(OCc4cccc(F)c4)c(Cl)c3)c2c1` showed a GI50 ([…]-0 renal) of 1310 nM, a TGI (786-0 renal) of 2600 nM and a GI50 (A498 renal) of 1130 nM. It also gave a TGI (A498 renal) of 2340 nM, a GI50 (A549 NSCLC) of 1170 nM and a TGI (A549 NSCLC) of 2420 nM. It also gave a GI50 (ACHN renal) of 523 nM, a TGI (ACHN renal) of 1990 nM and a GI50 (BT-549 breast) of 1510 nM. It also gave a TGI (BT-549 breast) of 2850 nM, a GI50 (CAKI-1 renal) of 1120 nM and a TGI (CAKI-1 renal) of 2340 nM. It also gave a GI50 (CCRF-CEM leukemia) of 1500 nM, a TGI (CCRF-CEM leukemia) of 2840 nM and a GI50 (COLO 205 colon) of 1960 nM. The TGI (COLO 205 colon) was 3380 nM, the GI50 (DU-145 prostate) was 1160 nM and the TGI (DU-145 prostate) was 2420 nM. It also gave a GI50 (EKVX NSCLC) of 1270 nM, a TGI (EKVX NSCLC) of 2540 nM and a GI50 (HCC-2998 colon) of 1540 nM. For the same compound, the TGI (HCC-2998 colon) was 2890 nM, the GI50 (HCT-116 colon) was 1660 nM and the TGI (HCT-116 colon) was 3050 nM. For the same compound, the GI50 (HCT-15 colon) was 1670 nM, the TGI (HCT-15 colon) was 3050 nM and the GI50 (HL-60(TB) leukemia) was 2230 nM. For the same compound, the TGI (HL-60(TB) leukemia) was 3690 nM, the GI50 (HOP-62 NSCLC) was 1620 nM and the TGI (HOP-62 NSCLC) was 2980 nM. The GI50 (HOP-92 NSCLC) was 981 nM, the TGI (HOP-92 NSCLC) was 2180 nM and the GI50 (HT29 colon) was 1650 nM. For the same compound, the TGI (HT29 colon) was 3040 nM, the GI50 (IGROV1 ovarian) was 261 nM and the TGI (IGROV1 ovarian) was 1870 nM. The GI50 (K-562 leukemia) was 1700 nM, the TGI (K-562 leukemia) was 3090 nM and the GI50 (KM12 colon) was 1760 nM. The TGI (KM12 colon) was 3160 nM, the GI50 (LOX IMVI melanoma) was 1910 nM and the TGI (LOX IMVI melanoma) was 3330 nM. It also gave a GI50 (M14 melanoma) of 1950 nM, a TGI (M14 melanoma) of 3370 nM and a GI50 (MALME-3M melanoma) of 1760 nM. It also gave a TGI (MALME-3M melanoma) of 3150 nM, a GI50 (MCF7 breast) of 1500 nM and a TGI (MCF7 breast) of 2850 nM. For the same compound, the GI50 (MDA-MB-231 breast) was 1730 nM, the TGI (MDA-MB-231 breast) was 3110 nM and the GI50 (MDA-MB-435 melanoma) was 1890 nM. For the same compound, the TGI (MDA-MB-435 melanoma) was 3310 nM, the GI50 (MDA-MB-468 breast) was 55.7 nM and the TGI (MDA-MB-468 breast) was 368 nM. It also gave a GI50 (MOLT-4 leukemia) of 1440 nM, a TGI (MOLT-4 leukemia) of 2760 nM and a GI50 (NCI-H226 lung) of 1800 nM. For the same compound, the TGI (NCI-H226 lung) was 3380 nM, the GI50 (NCI-H23 lung) was 2020 nM and the TGI (NCI-H23 lung) was 3980 nM. The GI50 (NCI-H322M lung) was 102 nM, the TGI (NCI-H322M lung) was 1230 nM and the GI50 (NCI-H460 NSCLC) was 1750 nM. For the same compound, the TGI (NCI-H460 NSCLC) was 3180 nM, the GI50 (NCI-H522 lung) was 48.2 nM and the TGI (NCI-H522 lung) was 1290 nM. It also gave a GI50 (NCI/ADR-RES ovarian) of 1490 nM, a TGI (NCI/ADR-RES ovarian) of 4020 nM and a GI50 (OVCAR-3 ovarian) of 1190 nM. The TGI (OVCAR-3 ovarian) was 2440 nM, the GI50 (OVCAR-4 ovarian) was 1280 nM and the TGI (OVCAR-4 ovarian) was 2550 nM. It also gave a GI50 (OVCAR-5 ovarian) of 1800 nM, a TGI (OVCAR-5 ovarian) of 3590 nM and a GI50 (OVCAR-8 ovarian) of 1370 nM. The TGI (OVCAR-8 ovarian) was 2670 nM, the GI50 (PC-3 prostate) was 1780 nM and the TGI (PC-3 prostate) was 3200 nM. The GI50 (RPMI-8226 leukemia) was 959 nM, the TGI (RPMI-8226 leukemia) was 2420 nM and the GI50 (RXF 393 renal) was 864 nM. The TGI (RXF 393 renal) was 2260 nM, the GI50 (SF-268 CNS) was 1620 nM and the TGI (SF-268 CNS) was 3000 nM. For the same compound, the GI50 (SF-295 CNS) was 1820 nM, the TGI (SF-295 CNS) was 3220 nM and the GI50 (SF-539 CNS) was 1590 nM. For the same compound, the TGI (SF-539 CNS) was 2950 nM, the GI50 (SK-MEL-2 melanoma) was 1310 nM and the TGI (SK-MEL-2 melanoma) was 2580 nM. For the same compound, the GI50 (SK-MEL-28 melanoma) was 1770 nM, the TGI (SK-MEL-28 melanoma) was 3160 nM and the GI50 (SK-MEL-5 melanoma) was 1510 nM. It also gave a TGI (SK-MEL-5 melanoma) of 2850 nM, a GI50 (SK-OV-3 ovarian) of 246 nM and a TGI (SK-OV-3 ovarian) of 3420 nM. The GI50 (SN12C renal) was 1280 nM, the TGI (SN12C renal) was 2550 nM and the GI50 (SNB-19 CNS) was 1670 nM. The TGI (SNB-19 CNS) was 3040 nM, the GI50 (SNB-75 CNS) was 1870 nM and the TGI (SNB-75 CNS) was 3270 nM. The GI50 (SR leukemia) was 393 nM, the TGI (SR leukemia) was 1230 nM and the GI50 (SW-620 colon) was 1880 nM. It also gave a TGI (SW-620 colon) of 3300 nM, a GI50 (T-47D breast) of 1020 nM and a TGI (T-47D breast) of 2410 nM. It also gave a GI50 (TK-10 renal) of 404 nM, a TGI (TK-10 renal) of 1880 nM and a GI50 (U251 glioblastoma) of 1880 nM. The TGI (U251 glioblastoma) was 3310 nM, the GI50 (UACC-257 melanoma) was 1520 nM and the TGI (UACC-257 melanoma) was 2850 nM. It also gave a GI50 (UACC-62 melanoma) of 1650 nM, a TGI (UACC-62 melanoma) of 3020 nM and a GI50 (UO-31 renal) of 1520 nM. For the same compound, the TGI (UO-31 renal) was 2860 nM.
